Assay results reported in paper PMC10325900, “A conserved motif in the disordered linker of human MLH1 is vital for DNA mismatch repair and its function is diminished by a cancer family mutation” (Nucleic Acids Research, 2023).
Values belong to the molecule of their own block, whether it stands above or below them.

Tests used:
yMLH1-yPMS1 = system: yMLH1-yPMS1; design: method as in Torres et al. [100]; conditions: 25mer yeast peptide, molar ratio 0-250-500-1000 to yMLH1-PMS1, MLH1-PMS2 35 nM, 1 mM Mn2+; ref Torres et al. [100]; cited from earlier work
MLH1-ΔConMot-PMS2 = target: T1, MLH1-ΔConMot-PMS2 (Homo sapiens, UniProt P40692+P54278, DEL377-396); test: DNA mismatch repair (MMR) complementation assay with peptide, MLH1-ΔConMot variant; type: biochemical
T1 construct: The pcDNA3 expression vector containing the entire open reading frame of human MLH1; expressed in transfected cells; host or cells: HEK293T (MLH1-deficient), transiently co-transfected
T1 sequence (P40692 with tags, fused parts or gaps DEL377-396): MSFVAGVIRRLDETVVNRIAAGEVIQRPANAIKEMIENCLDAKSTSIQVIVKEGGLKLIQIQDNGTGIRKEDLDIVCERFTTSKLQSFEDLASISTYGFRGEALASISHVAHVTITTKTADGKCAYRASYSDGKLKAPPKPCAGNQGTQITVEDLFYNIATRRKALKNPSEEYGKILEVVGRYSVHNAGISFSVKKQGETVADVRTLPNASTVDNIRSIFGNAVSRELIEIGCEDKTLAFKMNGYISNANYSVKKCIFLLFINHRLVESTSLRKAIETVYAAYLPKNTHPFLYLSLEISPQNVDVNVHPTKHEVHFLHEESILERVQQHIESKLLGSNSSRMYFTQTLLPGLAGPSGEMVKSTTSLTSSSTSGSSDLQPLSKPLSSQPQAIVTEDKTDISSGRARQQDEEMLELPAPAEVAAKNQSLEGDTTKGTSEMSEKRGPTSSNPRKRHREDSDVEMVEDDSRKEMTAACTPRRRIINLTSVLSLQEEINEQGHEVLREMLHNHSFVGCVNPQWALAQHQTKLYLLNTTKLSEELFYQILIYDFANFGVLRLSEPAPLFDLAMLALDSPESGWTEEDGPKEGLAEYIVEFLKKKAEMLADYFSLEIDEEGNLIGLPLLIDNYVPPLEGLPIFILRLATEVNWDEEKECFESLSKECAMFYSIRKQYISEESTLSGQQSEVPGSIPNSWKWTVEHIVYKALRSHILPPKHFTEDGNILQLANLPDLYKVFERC
T1 sequence (P54278 1-862 partner): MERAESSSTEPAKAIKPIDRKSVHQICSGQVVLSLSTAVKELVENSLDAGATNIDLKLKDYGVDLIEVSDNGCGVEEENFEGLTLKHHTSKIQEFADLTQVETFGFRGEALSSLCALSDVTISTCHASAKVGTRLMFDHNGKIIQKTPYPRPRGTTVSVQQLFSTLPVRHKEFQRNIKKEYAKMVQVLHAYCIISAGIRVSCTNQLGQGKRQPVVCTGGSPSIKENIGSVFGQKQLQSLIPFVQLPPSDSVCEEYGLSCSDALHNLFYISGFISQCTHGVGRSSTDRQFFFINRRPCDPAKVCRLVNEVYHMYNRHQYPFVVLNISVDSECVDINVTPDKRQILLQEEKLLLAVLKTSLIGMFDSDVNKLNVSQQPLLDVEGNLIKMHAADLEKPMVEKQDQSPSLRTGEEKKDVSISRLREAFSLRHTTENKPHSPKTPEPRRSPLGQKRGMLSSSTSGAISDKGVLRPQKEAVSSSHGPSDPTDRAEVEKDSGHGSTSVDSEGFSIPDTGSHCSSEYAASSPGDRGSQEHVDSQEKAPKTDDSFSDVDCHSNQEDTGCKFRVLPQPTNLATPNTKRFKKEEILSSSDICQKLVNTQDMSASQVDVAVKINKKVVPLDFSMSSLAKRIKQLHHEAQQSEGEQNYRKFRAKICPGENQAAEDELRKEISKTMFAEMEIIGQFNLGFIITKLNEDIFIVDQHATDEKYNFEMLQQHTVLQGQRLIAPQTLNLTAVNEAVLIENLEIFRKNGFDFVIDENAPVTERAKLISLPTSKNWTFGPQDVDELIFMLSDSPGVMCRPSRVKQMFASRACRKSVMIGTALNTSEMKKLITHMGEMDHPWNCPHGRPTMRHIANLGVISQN
Protocol: Mismatch repair activity was assessed as described in detail before ([79],[81]) (Supplementary Figure S3). […] Mismatched DNA plasmid substrate (Supplementary Figure S3) prepared according to previously published procedures ([81–83]) was added, and reactions in a final volume of 25 μl were incubated at 37°C for 15 min. Repair efficiency was scored by purifying the mismatched DNA plasmid from the reaction and assessing the fraction of homoduplex sequence by restriction digestion of the mismatched site using EcoRV. The substrate was additionally linearized with AseI.
For complementation assays with peptide, the indicated peptide(s) were used at stock concentrations of 50 or 500 μM in HEPES–KOH 20 mM pH 7.6 and supplemented to the MMR reactions.
Figure 4. Reaction of DNA mismatch repair to addition of ConMot peptide. (A) Nuclear extract of MLH1-proficient HEK293 cells was used for performing the DNA mismatch repair reaction. Four reactions were undertaken, with two reactions supplemented with either 7.5 μM or 75 μM ConMot-32 peptide. A negative control reaction was performed by omitting the 37°C repair incubation. (B) MMR reactions were performed with nuclear extract of MLH1-deficient HEK293T cells supplemented with extract of cells transfected either with wildtype MLH1-PMS2 (positive control) or with MLH1-ΔConMot-PMS2. To these MMR reactions, different peptides were added at a concentration of 75 μM: A ConMot-32 peptide (A), a Scramble-32 peptide (B) in which the conserved ConMot sequence is scrambled, and a short ConMot-20 peptide (C) that only contains the twenty highly conserved ConMot residues. The peptide sequences are given below the gel image. (C) The concentration-dependence of the MMR-activating effect of the ConMot-32 peptide observed in (B) was measured over a concentration range from 1–75 μM. (D) Theoretical binding curves of a ligand (peptide) to a protein were calculated for dissociation constants (KD) of 1, 5 and 10 μM for a protein concentration as present for MLH1-PMS2 in the MMR assay reactions (see also Supplementary Figure S3). Into this diagram, the average MMR activities (and standard deviations) measured in >3 of the experiment exemplarily shown in C were introduced as bars at ConMot-32 peptide concentrations of 1, 2.5, 7.5, 18 and 75 μM.
Second, we used extract of the repair-deficient cell line HEK293T supplemented with either wildtype MutLα (MLH1-PMS2) or the ΔConMot deletion variant, corresponding to experiment shown in Figure 2B. In this experiment, we again added ConMot peptide.
We investigated the effect of the ConMot peptide more closely by titrating the required peptide concentrations for activation. We determined that the mismatch repair reactions performed in this study contained approximately 280 fmol MLH1 (Supplementary Figure S4A and B), which is in good agreement with previous quantifications of MLH1-PMS2 in cells and extracts ([96]). […] Dissociation constants (KD) for peptides to proteins are typically in the range of 1–10 μM ([97]). We compared the measured concentration-dependent MMR activities with theoretical binding curves of (peptide) ligands to (protein) substrates for KD values of 1, 5 and 10 μM (Supplementary Figure S4C) at the determined MLH1 concentration. […] It is therefore plausible that a binding reaction of the ConMot peptide (to a protein) underlies the restauration of MMR activity. […]
Deletion C on M ot (∆Co nMot) c.1129_1188del CTGCAGCCTCTGAGCAAA […]
Del et i on comp are (∆Compare) c.1221_1280del […] ACTGGACAGGGGTTTGCT
Scramble c.1147_1160delinsGAC ggtacgtTCCCGGGAACAGAAGCT atagtgtcCTGGTGGGCATAGACCT
p.(M383_D387delinsDTMVR) ACTATGGTAC G T TATC
ConMot hy bri d gcataTCTGCAGCCTCTGAGCAA acagg[…]
Supplementary Table 1: Analyzed variant inf ormation.
Variant descriptions confer to HGVS format and refer to the MLH1 reference cDNA (NM_000249.4) […]

[1] = target: MLH1-ΔConMot-PMS2 (MutLα heterodimer with the ConMot deletion variant of MLH1) (human) (UniProt P40692)

Molecule: KAKRQENKL VRI D ASQAKITSFLSS [25mer]
effect of peptide on endonuclease activation of yMLH1-yPMS1 (yMLH1-yPMS1): inhibiting endonuclease activit y

effect of 20mer-ConMot on MMR restauration by the 32mer-ConMot (MLH1-ΔConMot-PMS2; Figure 4B, peptides at 75 μM, combined peptides, 37°C, 15 min): did not affect MMR restauration | effect of peptide on MMR (summary in Supplementary Table 2) (MLH1-ΔConMot-PMS2; molar ratio 0-860-2300-8600 to hMLH1-PMS2, Tris-HCl pH 7.5, 5 mM Mg2+, 1.5 mM ATP): inactive
Molecule: KVYAHQMVRTDSREQKLDAF [ConMot-20]

restoration of DNA mismatch repair activity of the ΔConMot variant (MLH1-ΔConMot-PMS2; peptide 75 μM (Figure 4B), HEK293T nuclear extract 50 μg + 5 μg transfected extract, 25 μl, 37°C, 15 min, EcoRV/AseI digestion, agarose gel): did not restore MMR activity
Molecule: SGSSDMVQFEKLKDRRSQDATYVAHLQPLSKP [Scramble-32]

KD read by comparing the concentration-dependent MMR restoration with theoretical binding curves of a peptide ligand to a protein at the determined MLH1 concentration [1]: 7.5 µM
Molecule: SGSSDKVYAHQMVRTDSREQKLDAFLQPLSK [ConMot-32 peptide (32-mer peptide containing the sequence of the MLH1-ConMot)]
